According to article PMC8550792, “Evolution of kinase polypharmacology across HSP90 drug discovery” (Cell Chemical Biology, 2021):

Experiments:
Test in all cases: biochemical
Assay type in all cases: biochemical
[1] = target: T1, 382 unique human kinases (Homo sapiens, UniProt O60674); conditions: JAK2, [ATP] 2.5 µM, compound 10 uM; for remaining activity at 10 µM: read-out: % Enzyme Activity (relative to DMSO controls)
T1 construct: purchased Reaction Biology (HotSpot contract assay)

[2] = target: T2, 382 unique human kinases (Homo sapiens, UniProt Q9UQM7); conditions: CAMK2a, 10 uM; for remaining activity at 10 µM: read-out: % Enzyme Activity (relative to DMSO controls)
T2 construct: purchased Reaction Biology (HotSpot contract assay)

[3] = target: T3, 382 unique human kinases (Homo sapiens, UniProt Q8N5S9); conditions: CAMKK1, 10 uM; for remaining activity at 10 µM: read-out: % Enzyme Activity (relative to DMSO controls)
T3 construct: purchased Reaction Biology (HotSpot contract assay)

[4] = target: T4, 382 unique human kinases (Homo sapiens, UniProt P00533, DEL746-750); conditions: EGFR (d746-750), 10 uM; for remaining activity at 10 µM: read-out: % Enzyme Activity (relative to DMSO controls)
T4 construct: purchased Reaction Biology (HotSpot contract assay)

[5] = target: T5, 382 unique human kinases (Homo sapiens, UniProt Q9P1W9); conditions: PIM2, [ATP] 20 µM, compound 10 uM; for remaining activity at 10 µM: read-out: % Enzyme Activity (relative to DMSO controls)
T5 construct: purchased Reaction Biology (HotSpot contract assay)

[6] = target: T6, 382 unique human kinases (Homo sapiens, UniProt P36896); conditions: ALK4/ACVR1B, 10 uM; for remaining activity at 10 µM: read-out: % Enzyme Activity (relative to DMSO controls)
T6 construct: purchased Reaction Biology (HotSpot contract assay)
T6 sequence (P36896 24-505): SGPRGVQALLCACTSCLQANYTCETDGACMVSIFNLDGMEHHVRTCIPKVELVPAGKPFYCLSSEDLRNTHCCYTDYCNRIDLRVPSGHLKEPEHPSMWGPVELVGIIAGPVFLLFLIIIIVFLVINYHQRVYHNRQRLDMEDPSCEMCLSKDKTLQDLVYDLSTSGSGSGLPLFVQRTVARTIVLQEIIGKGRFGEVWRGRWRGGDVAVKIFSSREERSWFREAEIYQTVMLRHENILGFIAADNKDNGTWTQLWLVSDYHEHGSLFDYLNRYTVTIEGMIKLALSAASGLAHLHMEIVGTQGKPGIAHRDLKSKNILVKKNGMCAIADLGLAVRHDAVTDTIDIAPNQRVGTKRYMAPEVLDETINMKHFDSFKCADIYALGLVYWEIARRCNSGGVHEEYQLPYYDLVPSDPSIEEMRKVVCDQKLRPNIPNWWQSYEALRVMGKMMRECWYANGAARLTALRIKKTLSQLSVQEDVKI

[7] = target: T7, 382 unique human kinases (Homo sapiens, UniProt P00533, DEL752-759); conditions: EGFR (d752-759), 10 uM; for remaining activity at 10 µM: read-out: % Enzyme Activity (relative to DMSO controls)
T7 construct: purchased Reaction Biology (HotSpot contract assay)

[8] = target: T8, 382 unique human kinases (Homo sapiens, UniProt O95819); conditions: HGK/MAP4K4, 10 uM; for remaining activity at 10 µM: read-out: % Enzyme Activity (relative to DMSO controls)
T8 construct: purchased Reaction Biology (HotSpot contract assay)

[9] = target: T9, 382 unique human kinases (Homo sapiens, UniProt Q16288); conditions: TRKC, [ATP] 100 µM
T9 construct: purchased Reaction Biology (HotSpot contract assay)

[10] = target: T10, 382 unique human kinases (Homo sapiens, UniProt Q9UM73, L1152R); conditions: ALK (L1152R), [ATP] 30 µM, compound 10 uM; for remaining activity at 10 µM: read-out: % Enzyme Activity (relative to DMSO controls)
T10 construct: purchased Reaction Biology (HotSpot contract assay)

[11] = target: T11, 382 unique human kinases (Homo sapiens, UniProt P21802, V564F); conditions: FGFR2 (V564F), [ATP] 30 µM, compound 10 uM; for remaining activity at 10 µM: read-out: % Enzyme Activity (relative to DMSO controls)
T11 construct: purchased Reaction Biology (HotSpot contract assay)

[12] = target: T12, 382 unique human kinases (Homo sapiens, UniProt P06241, Y531F); conditions: FYN (Y531F), [ATP] 5 µM, compound 10 uM; for remaining activity at 10 µM: read-out: % Enzyme Activity (relative to DMSO controls)
T12 construct: purchased Reaction Biology (HotSpot contract assay)

[13] = target: T13, 382 unique human kinases (Homo sapiens, UniProt P15056, V600A); conditions: BRAF (V600A), compound at 10 uM, duplicate values; for remaining activity at 10 µM: read-out: % Enzyme Activity (relative to DMSO controls)
T13 construct: purchased Reaction Biology (HotSpot contract assay)

[14] = target: T14, 382 unique human kinases (Homo sapiens, UniProt Q14289); conditions: PYK2, 10 uM; for remaining activity at 10 µM: read-out: % Enzyme Activity (relative to DMSO controls)
T14 construct: purchased Reaction Biology (HotSpot contract assay)

[15] = target: T15, 382 unique human kinases (Homo sapiens, UniProt P22455); conditions: FGFR4, 10 uM; for remaining activity at 10 µM: read-out: % Enzyme Activity (relative to DMSO controls)
T15 construct: purchased Reaction Biology (HotSpot contract assay)

[16] = target: T16, 382 unique human kinases (Homo sapiens, UniProt Q9UM73, R1275Q); conditions: ALK (R1275Q), 10 uM; for remaining activity at 10 µM: read-out: % Enzyme Activity (relative to DMSO controls)
T16 construct: purchased Reaction Biology (HotSpot contract assay)

[17] = target: T17, 382 unique human kinases (Homo sapiens, UniProt Q86Y07); conditions: kinase VRK2, compound 10 uM; for remaining activity at 10 µM: read-out: % Enzyme Activity (relative to DMSO controls)
T17 construct: purchased Reaction Biology (HotSpot contract assay)

[18] = target: T18, 382 unique human kinases (Homo sapiens, UniProt Q9HBH9); conditions: kinase MNK2, compound 10 uM; for remaining activity at 10 µM: read-out: % Enzyme Activity (relative to DMSO controls)
T18 construct: purchased Reaction Biology (HotSpot contract assay)

[19] = target: T19, 382 unique human kinases (Homo sapiens, UniProt P48729); conditions: kinase CK1a1, compound 10 uM; for remaining activity at 10 µM: read-out: % Enzyme Activity (relative to DMSO controls)
T19 construct: purchased Reaction Biology (HotSpot contract assay)

[20] = target: T20, 382 unique human kinases (Homo sapiens, UniProt O75582); conditions: kinase MSK1/RPS6KA5, compound 10 uM; for remaining activity at 10 µM: read-out: % Enzyme Activity (relative to DMSO controls)
T20 construct: purchased Reaction Biology (HotSpot contract assay)

[21] = target: T21, 382 unique human kinases (Homo sapiens, UniProt P24723); conditions: PKCeta, 10 uM; for remaining activity at 10 µM: read-out: % Enzyme Activity (relative to DMSO controls)
T21 construct: purchased Reaction Biology (HotSpot contract assay)

[22] = target: T22, 382 unique human kinases (Homo sapiens, UniProt O14733); conditions: kinase MKK7, compound 10 uM; for remaining activity at 10 µM: read-out: % Enzyme Activity (relative to DMSO controls)
T22 construct: purchased Reaction Biology (HotSpot contract assay)
T22 sequence (O14733 1-419): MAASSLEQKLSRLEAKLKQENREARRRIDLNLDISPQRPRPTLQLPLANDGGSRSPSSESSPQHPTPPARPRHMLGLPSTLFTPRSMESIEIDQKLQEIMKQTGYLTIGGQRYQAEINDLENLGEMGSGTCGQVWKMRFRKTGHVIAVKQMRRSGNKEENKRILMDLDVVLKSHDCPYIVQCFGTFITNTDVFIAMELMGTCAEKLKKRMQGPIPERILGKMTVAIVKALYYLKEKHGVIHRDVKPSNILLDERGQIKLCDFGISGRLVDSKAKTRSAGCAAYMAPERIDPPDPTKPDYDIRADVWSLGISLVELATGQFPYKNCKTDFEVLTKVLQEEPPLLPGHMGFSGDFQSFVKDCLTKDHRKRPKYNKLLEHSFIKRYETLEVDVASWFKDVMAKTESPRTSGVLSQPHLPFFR

[23] = compound 10 uM, read-out: % Enzyme Activity (relative to DMSO controls)

T9 sequence (Q16288 32-839): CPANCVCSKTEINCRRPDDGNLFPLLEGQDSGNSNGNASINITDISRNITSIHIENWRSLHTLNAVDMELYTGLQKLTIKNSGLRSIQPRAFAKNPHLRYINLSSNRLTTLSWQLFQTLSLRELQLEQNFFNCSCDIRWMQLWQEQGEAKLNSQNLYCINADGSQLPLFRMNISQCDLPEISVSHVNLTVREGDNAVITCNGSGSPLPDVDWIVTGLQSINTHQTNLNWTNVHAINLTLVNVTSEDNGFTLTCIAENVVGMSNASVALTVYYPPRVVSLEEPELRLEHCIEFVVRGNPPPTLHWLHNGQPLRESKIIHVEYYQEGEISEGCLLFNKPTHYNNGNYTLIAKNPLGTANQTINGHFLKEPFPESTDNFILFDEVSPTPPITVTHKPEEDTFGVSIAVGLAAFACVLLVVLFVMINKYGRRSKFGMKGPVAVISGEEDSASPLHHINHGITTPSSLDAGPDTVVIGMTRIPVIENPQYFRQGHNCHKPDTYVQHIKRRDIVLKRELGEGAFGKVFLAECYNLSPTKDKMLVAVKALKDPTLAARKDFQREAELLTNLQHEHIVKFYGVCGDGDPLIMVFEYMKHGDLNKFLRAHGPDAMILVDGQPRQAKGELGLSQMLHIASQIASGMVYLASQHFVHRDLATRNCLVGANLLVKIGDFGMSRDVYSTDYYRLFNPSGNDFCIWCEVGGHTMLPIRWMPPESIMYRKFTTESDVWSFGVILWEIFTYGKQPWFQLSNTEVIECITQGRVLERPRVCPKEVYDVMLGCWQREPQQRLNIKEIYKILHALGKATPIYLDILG
T5 sequence (Q9P1W9 whole entry): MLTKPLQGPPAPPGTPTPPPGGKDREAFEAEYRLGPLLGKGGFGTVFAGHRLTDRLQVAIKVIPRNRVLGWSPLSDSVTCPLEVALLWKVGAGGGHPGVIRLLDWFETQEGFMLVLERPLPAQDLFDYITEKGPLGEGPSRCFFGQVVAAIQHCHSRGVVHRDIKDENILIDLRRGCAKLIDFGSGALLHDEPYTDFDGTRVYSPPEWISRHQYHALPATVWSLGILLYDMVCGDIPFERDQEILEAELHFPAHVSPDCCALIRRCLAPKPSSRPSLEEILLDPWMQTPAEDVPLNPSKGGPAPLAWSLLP
T10 sequence (Q9UM73 19-1620 L1152R): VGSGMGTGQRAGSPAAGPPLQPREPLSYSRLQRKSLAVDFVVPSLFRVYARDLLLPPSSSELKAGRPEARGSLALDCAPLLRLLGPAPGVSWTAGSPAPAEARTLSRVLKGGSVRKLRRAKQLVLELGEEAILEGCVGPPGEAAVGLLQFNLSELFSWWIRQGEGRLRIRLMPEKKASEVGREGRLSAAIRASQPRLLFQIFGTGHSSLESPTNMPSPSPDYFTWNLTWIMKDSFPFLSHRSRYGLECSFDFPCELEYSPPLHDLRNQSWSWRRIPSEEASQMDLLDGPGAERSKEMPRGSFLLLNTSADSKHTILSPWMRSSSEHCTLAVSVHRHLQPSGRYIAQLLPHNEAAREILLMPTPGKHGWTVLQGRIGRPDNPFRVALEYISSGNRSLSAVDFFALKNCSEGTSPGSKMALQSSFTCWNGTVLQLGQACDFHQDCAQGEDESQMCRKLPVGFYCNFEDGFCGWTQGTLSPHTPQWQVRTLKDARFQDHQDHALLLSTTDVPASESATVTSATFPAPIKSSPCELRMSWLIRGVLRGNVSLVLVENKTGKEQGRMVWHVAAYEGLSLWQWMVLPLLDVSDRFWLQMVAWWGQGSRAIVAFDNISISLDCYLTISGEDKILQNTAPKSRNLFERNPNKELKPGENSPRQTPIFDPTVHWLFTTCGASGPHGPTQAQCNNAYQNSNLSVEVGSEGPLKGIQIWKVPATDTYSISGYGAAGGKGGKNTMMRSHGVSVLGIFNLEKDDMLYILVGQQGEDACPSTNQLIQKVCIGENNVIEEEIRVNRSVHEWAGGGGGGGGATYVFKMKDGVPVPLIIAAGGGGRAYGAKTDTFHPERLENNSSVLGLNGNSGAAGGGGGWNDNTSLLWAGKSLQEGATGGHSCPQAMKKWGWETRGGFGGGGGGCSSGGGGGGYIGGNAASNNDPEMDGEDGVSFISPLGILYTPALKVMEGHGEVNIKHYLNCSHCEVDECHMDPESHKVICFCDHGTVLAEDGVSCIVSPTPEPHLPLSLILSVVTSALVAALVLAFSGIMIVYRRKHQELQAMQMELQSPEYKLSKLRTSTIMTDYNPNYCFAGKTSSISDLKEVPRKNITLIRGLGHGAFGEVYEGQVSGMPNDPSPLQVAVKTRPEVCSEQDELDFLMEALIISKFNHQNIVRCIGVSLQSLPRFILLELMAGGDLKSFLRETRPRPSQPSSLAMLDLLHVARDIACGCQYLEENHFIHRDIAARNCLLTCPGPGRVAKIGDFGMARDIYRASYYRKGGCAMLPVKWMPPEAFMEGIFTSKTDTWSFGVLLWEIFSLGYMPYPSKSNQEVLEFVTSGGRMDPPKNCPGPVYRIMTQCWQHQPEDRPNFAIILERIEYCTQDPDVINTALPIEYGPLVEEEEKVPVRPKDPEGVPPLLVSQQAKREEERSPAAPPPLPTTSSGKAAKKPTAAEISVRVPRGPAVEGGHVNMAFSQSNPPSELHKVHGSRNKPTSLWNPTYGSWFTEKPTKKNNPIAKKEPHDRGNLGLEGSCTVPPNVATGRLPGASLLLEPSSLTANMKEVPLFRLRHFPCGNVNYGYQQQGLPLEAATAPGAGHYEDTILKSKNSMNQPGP
T1 sequence (O60674 whole entry): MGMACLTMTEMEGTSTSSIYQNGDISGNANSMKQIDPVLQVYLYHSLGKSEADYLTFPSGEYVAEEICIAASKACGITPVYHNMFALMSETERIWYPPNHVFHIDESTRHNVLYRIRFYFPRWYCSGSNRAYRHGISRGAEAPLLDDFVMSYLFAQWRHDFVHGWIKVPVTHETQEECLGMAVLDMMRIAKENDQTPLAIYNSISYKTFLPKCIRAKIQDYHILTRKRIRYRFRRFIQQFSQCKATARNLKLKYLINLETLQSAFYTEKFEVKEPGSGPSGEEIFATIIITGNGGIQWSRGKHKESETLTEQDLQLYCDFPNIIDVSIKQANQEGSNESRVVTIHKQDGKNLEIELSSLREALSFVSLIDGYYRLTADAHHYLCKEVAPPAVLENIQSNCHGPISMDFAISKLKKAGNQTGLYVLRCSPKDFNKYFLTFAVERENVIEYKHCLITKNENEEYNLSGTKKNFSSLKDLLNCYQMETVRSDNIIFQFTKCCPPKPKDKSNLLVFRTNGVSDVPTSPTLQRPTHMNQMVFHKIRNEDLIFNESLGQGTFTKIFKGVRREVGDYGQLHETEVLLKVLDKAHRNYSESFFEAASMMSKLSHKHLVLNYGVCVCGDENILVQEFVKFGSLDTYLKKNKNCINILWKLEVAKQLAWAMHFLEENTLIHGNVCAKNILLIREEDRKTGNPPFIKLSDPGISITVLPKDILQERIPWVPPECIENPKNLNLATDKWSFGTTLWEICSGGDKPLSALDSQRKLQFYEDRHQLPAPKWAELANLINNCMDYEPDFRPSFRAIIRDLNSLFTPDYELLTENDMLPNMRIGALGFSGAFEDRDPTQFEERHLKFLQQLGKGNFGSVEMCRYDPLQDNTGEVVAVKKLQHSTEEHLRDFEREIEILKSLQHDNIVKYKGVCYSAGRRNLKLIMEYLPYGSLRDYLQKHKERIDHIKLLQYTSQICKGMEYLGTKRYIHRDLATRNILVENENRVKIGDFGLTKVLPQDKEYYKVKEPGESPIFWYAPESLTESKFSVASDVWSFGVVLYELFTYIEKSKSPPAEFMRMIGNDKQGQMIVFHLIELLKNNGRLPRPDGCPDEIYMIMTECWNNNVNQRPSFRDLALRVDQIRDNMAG
T13 sequence (P15056 whole entry V600A): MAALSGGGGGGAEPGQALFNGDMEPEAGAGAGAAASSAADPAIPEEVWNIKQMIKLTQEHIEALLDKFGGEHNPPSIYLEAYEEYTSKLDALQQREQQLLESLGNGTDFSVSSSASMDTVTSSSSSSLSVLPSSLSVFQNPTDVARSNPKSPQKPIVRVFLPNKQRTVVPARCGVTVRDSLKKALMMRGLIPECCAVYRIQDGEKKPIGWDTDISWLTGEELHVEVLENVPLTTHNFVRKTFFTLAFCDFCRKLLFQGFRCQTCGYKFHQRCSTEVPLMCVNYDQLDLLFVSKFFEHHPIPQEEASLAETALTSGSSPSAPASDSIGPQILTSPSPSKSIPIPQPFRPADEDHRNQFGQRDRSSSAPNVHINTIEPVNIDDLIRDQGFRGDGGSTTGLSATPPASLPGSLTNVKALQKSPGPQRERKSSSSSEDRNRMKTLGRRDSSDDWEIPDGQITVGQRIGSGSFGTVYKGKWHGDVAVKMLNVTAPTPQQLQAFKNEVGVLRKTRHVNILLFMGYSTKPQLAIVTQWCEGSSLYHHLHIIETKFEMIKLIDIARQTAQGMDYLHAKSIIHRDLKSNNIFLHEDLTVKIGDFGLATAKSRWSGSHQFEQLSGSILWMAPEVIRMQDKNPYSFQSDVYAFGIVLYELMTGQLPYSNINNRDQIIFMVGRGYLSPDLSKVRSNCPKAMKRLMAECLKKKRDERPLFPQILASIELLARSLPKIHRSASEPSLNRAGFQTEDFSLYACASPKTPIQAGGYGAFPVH
T2 sequence (Q9UQM7 whole entry): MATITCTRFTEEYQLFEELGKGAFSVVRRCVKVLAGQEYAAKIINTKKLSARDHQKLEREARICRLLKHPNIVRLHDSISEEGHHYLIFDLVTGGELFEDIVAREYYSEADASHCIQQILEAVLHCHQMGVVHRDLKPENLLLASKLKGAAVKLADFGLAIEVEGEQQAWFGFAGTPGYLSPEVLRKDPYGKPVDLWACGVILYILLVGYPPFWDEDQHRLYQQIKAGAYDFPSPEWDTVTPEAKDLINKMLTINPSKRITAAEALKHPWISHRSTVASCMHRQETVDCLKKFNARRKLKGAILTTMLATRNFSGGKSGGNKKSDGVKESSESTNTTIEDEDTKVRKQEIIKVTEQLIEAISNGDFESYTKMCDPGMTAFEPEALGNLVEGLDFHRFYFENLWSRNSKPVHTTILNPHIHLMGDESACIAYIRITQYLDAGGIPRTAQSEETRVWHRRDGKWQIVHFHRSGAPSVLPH

SMILES	remaining activity at 10 µM [1]	remaining activity at 10 µM [2]	remaining activity at 10 µM [3]	remaining activity at 10 µM [4]	remaining activity at 10 µM [5]	remaining activity at 10 µM [6]	remaining activity at 10 µM [7]	remaining activity at 10 µM [8]	remaining activity at 10 µM [9, 23]	remaining activity at 10 µM [10]	remaining activity at 10 µM [11]	remaining activity at 10 µM [12]	remaining activity at 10 µM [13]	remaining activity at 10 µM [14]	remaining activity at 10 µM [15]	remaining activity at 10 µM [16]	remaining activity at 10 µM [17]	remaining activity at 10 µM [18]	remaining activity at 10 µM [19]	remaining activity at 10 µM [20]	other results
CCNC(=O)c1noc(-c2cc(C(C)C)c(O)cc2O)c1-c1ccc(CN2CCOCC2)cc1 [Luminespib]	99.6%	104%	104%	94%	106%	95%	99.4%	110%	96.8%	90.7%	99.4%	24.2%									% Enzyme Activity (relative to DMSO controls) [1]: 97.09%; % Enzyme Activity (relative to DMSO controls) [2]: 102.76%; % Enzyme Activity (relative to DMSO controls) [3]: 103.58%; % Enzyme Activity (relative to DMSO controls) [4]: 93.74%; % Enzyme Activity (relative to DMSO controls) [5]: 103.60%; % Enzyme Activity (relative to DMSO controls) [6]: 94.12%; % Enzyme Activity (relative to DMSO controls) [7]: 98.01%; % Enzyme Activity (relative to DMSO controls) [8]: 108.63%; % Enzyme Activity (relative to DMSO controls) ([9]; compound 10 uM): 94.48%; % Enzyme Activity (relative to DMSO controls) [10]: 90.08%; % Enzyme Activity (relative to DMSO controls) [11]: 98.77%; % Enzyme Activity (relative to DMSO controls) [12]: 23.48%
CC(C)c1cc(-c2n[nH]c(=O)n2-c2ccc3c(ccn3C)c2)c(O)cc1O [Ganetespib (STA9090)]													119%	78.5%	71.5%	65.1%	91.2%	92%	84.4%	81%	remaining activity at 10 µM [21]: 75.8%; remaining activity at 10 µM [22]: 80.9%
CCNC(=O)c1noc(-c2cc(C(C)C)c(O)cc2O)c1-c1ccc(CN2CCOCC2)cc1 [Luminespib (AUY-922)]													105%	98.8%	97.1%	102%	102%	105%	101%	111%	% Enzyme Activity (relative to DMSO controls) [13]: 102.37%; % Enzyme Activity (relative to DMSO controls) [14]: 97.56%; % Enzyme Activity (relative to DMSO controls) [15]: 96.06%; % Enzyme Activity (relative to DMSO controls) [16]: 101.49%; % Enzyme Activity (relative to DMSO controls) [17]: 100.26%; % Enzyme Activity (relative to DMSO controls) [18]: 103.84%; % Enzyme Activity (relative to DMSO controls) [19]: 96.26%; % Enzyme Activity (relative to DMSO controls) [20]: 109.40%; % Enzyme Activity (relative to DMSO controls) [21]: 105.31%; remaining activity at 10 µM [21]: 106%; % Enzyme Activity (relative to DMSO controls) [22]: 102.48%; remaining activity at 10 µM [22]: 105%
CC(C)c1cc(-c2n[nH]c(=O)n2-c2ccc3c(ccn3C)c2)c(O)cc1O [Ganetespib]	57.1%	91.1%	99%	91.8%	28.8%	111%	103%	98.6%	7.62%	14.2%	41.2%	7.4%									remaining activity at 1 µM ([9]; compound 1 uM, read-out: % Enzyme Activity (relative to DMSO controls)): 30.6%
